Twelve compounds from patent publication US7977372B2, “Ortho aminoamides for the treatment of cancer” (Hoffmann-La Roche Inc., priority 2009, dated 2011) can be followed below.

Assay [1] relates to histone deacetylase (HeLa nuclear extract). The experiment in a line: HeLa extract HDAC fluorometric assay. The format is biochemical. To be noted: compound at 30 micromolar; relative to SNDX-275. On the procedure:
Novel compounds were tested for their ability to inhibit histone deacetylase using an in vitro deacetylation assay. The enzyme source for this assay was HeLa nuclear extract. The substrate consisted of a commercial product containing an acetylated lysine side chain (both HeLa extract and substrate are available commercially from BIOMOL Research Laboratories, Inc., Plymouth Meeting, Pa.). After deacetylation of the substrate by incubation with HeLa nuclear extract, subsequent exposure to a developing reagent produces a fluorophore that is directly proportional to the level of deacetylation. Using the substrate concentration at the Km for the HeLa nuclear extract, the deacetylation assay was performed in the presence of novel compounds at 30 micromolar and the percent enzyme inhibition relative to a known reference HDAC inhibitor (SNDX-275) was determined. […] Inhibitory activity for specific representative compounds can be found in Table 19.

For assay [2], the system named is SMMC-7721 liver cancer cells. The experiment in a line: Growth inhibition of cancer cell lines (MTS / WST assay), SMMC-7721. The format is cell-based. As to conditions: for IC90: read-out: SMMC GI90. On the procedure: (§1) The novel compounds of the present invention were tested for their ability to inhibit growth of various cancer cell lines using in vitro growth inhibition assays described below.
(§2) Cells were seeded in 96-well culture plates (200 microliters/well at different seeding concentrations depending on cell type) and incubated overnight at 37 degrees Celsius in 5% CO2. After adding compound dilutions to the cells (DMSO concentration kept below 0.5%), the cells were incubated at 37 degrees Celsius in 5% CO2 for 72 hours. The effects on proliferation were determined by addition of MTS reagent (Promega) according to the manufacturer's instruction, followed by incubation for 2 hours at 37 degrees Celsius in 5% CO2, and finally recording the absorbance at 490 nm using an ELISA plate reader.
(§3) Similar to MTS assay except that the developer is the CCK-8 reagent (Dojindo) and the plate reader is set to 450 nm absorbance.
(§4) GI50 and GI90 values against SGC-7901 gastric cancer cells and SMMC-7721 liver cancer cells for specific representative compounds can be found in Table 19.

Assay [3] relates to SGC-7901 gastric cancer cells. The experiment in a line: Growth inhibition of cancer cell lines (MTS / WST assay), SGC-7901. Format: cell-based. As to conditions: for IC90: read-out: SGC GI90. On the procedure: as §1, §2, §3, §4

As to `CN1CC(C(=O)Nc2ccc(Br)cc2)C(c2ccc(/C=C/C(=O)Nc3ccccc3N)cc2)C1` (stereo not drawn) [Example 5-20], the “HD RP30 (relative inhibitory potency compared with SNDX-275)” value in assay [1] is reported as 1.62. Further, in assay [2] (Homo sapiens, SMMC-7721, 72 h), the GI50 (usually the concentration giving 50% growth inhibition) was 770 nM and the IC90 turned out to be 1620 nM. In assay [3] (Homo sapiens, SGC-7901, 72 h), it took 500 nM to inhibit growth by half (GI50) and the IC90 worked out at 1300 nM.
Taken in the same sequence, the figures for `CN1CC(c2ccc(/C=C/C(=O)Nc3ccccc3N)cc2)C(c2ncc(-c3ccccc3)[nH]2)C1` (stereo not drawn) [Example 11-2] were 1.64, 700 nM, 1690 nM, 420 nM and 1990 nM.
`Nc1ccccc1NC(=O)/C=C/c1ccc(C2CN(CCF)CC2C(=O)Nc2ccc(Cl)cc2)cc1` (racemic) [Example 21, rac-(trans-3,4)-4-{4-[2-(2-Amino-phenylcarbamoyl)-vinyl]-phenyl}-1-(2-fluoro-ethyl)-pyrrolidine-3-carboxylic acid (4-chloro-phenyl)-amide]: the “HD RP30 (relative inhibitory potency compared with SNDX-275)” value in assay [1] is listed as 1.09. In assay [2] (Homo sapiens, SMMC-7721, 72 h), the GI50 worked out at 910 nM and the IC90 worked out at 2630 nM. In assay [3] (Homo sapiens, SGC-7901, 72 h), the concentration for 50% growth inhibition (GI50) came out at 420 nM and the IC90 is 1380 nM.
The corresponding values for `Nc1ccccc1NC(=O)/C=C/c1ccc(C2CN(C3CCOCC3)CC2C(=O)Nc2ccc(Cl)cc2)cc1` (stereo not drawn) [Example 16-2] are 1.36, 750 nM, 1870 nM, 410 nM and 1170 nM.
On to `CC(C)(O)CN1CC(C(=O)Nc2ccc(Cl)cc2)C(c2ccc(/C=C/C(=O)Nc3ccccc3N)cc2)C1` (stereo not drawn) [Example 31-8], for which the “HD RP30 (relative inhibitory potency compared with SNDX-275)” value in assay [1] amounted to 1.48. Besides, in assay [2] (Homo sapiens, SMMC-7721, 72 h), growth was halved (GI50) at 760 nM and the IC90 was 2090 nM. For the same compound, in assay [3] (Homo sapiens, SGC-7901, 72 h), the GI50 is 540 nM and the IC90 turned out to be 1380 nM.
For `CN1CC(C(=O)Nc2ccc(F)cc2)C(c2ccc(/C=C/C(=O)Nc3ccccc3N)nc2)C1` (stereo not drawn) [Example 73-2], the “HD RP30 (relative inhibitory potency compared with SNDX-275)” value in assay [1] is recorded as 1.36. In addition, the 50% growth inhibitory concentration (GI50) in assay [2] (Homo sapiens, SMMC-7721, 72 h) amounted to 1440 nM; in assay [3] (Homo sapiens, SGC-7901, 72 h), 490 nM. For the same compound, the IC90 in assay [2] (Homo sapiens, SMMC-7721, 72 h) worked out at 4520 nM; in assay [3] (Homo sapiens, SGC-7901, 72 h), 2010 nM.
Take `Nc1ccccc1NC(=O)/C=C/c1ccc(C2CN(C3CCOCC3)CC2C(=O)Nc2ccc(Cl)cc2)cc1` (stereo not drawn) [Example 16-20]: in assay [1], the “HD RP30 (relative inhibitory potency compared with SNDX-275)” value amounted to 1.90. Also, in assay [2] (72 hours), the GI50 came out at 830 nM and the “SMMC GI90” value stood at 2960 nM. In assay [3] (72 hours), the GI50 was determined as 450 nM and the “SGC GI90” value worked out at 1230 nM.
`CN1CC(c2ccc(/C=C/C(=O)Nc3ccccc3N)cc2)C(c2nc3ccccc3[nH]2)C1` (stereo not drawn) [Example 11-3]: in assay [1], the “HD RP30 (relative inhibitory potency compared with SNDX-275)” value was found to be 1.62. Also, in assay [2] (Homo sapiens, SMMC-7721, 72 h), halving of growth (GI50) required 680 nM and the IC90 was determined as 2200 nM. Besides, in assay [3] (Homo sapiens, SGC-7901, 72 h), halving of growth (GI50) required 320 nM and the IC90 was 1620 nM.
On to `Cc1cc(NC(=O)C2CN(C)CC2c2ccc(/C=C/C(=O)Nc3ccccc3N)cc2)ccc1Cl` (stereo not drawn) [Example 5-29], for which the “HD RP30 (relative inhibitory potency compared with SNDX-275)” value in assay [1] is on record as 1.65. The concentration for 50% growth inhibition (GI50) stood at 640 nM in assay [2] (Homo sapiens, SMMC-7721, 72 h) and 320 nM in assay [3] (Homo sapiens, SGC-7901, 72 h). Moreover, the IC90 in assay [2] (Homo sapiens, SMMC-7721, 72 h) came to 1390 nM; in assay [3] (Homo sapiens, SGC-7901, 72 h) it was 1040 nM.
For the compound `CN1CC(c2ccc(/C=C/C(=O)Nc3ccccc3N)cc2)C(c2nc3cc(F)ccc3[nH]2)C1` (stereo not drawn) [Example 11-6], in assay [1], the “HD RP30 (relative inhibitory potency compared with SNDX-275)” value is given as 1.79. Besides, the 50% growth inhibitory concentration (GI50) is 920 nM in assay [2] (Homo sapiens, SMMC-7721, 72 h) and 350 nM in assay [3] (Homo sapiens, SGC-7901, 72 h). Also, the IC90 was 3040 nM in assay [2] (Homo sapiens, SMMC-7721, 72 h) and 1080 nM in assay [3] (Homo sapiens, SGC-7901, 72 h).
Take `COc1ccc(NC(=O)C2CN(C)CC2c2ccc(/C=C/C(=O)Nc3ccccc3N)cc2)cc1` (stereo not drawn) [Example 5-33]: the “HD RP30 (relative inhibitory potency compared with SNDX-275)” value in assay [1] was 1.49. Also, in assay [2] (Homo sapiens, SMMC-7721, 72 h), the GI50 is 870 nM and the IC90 came out at 2210 nM. In assay [3] (Homo sapiens, SGC-7901, 72 h), the GI50 turned out to be 420 nM and the IC90 was 1620 nM.
In the case of `Cc1cccc(NC(=O)C2CN(C)CC2c2ccc(/C=C/C(=O)Nc3ccccc3N)cc2)c1` (stereo not drawn) [Example 5-28], the “HD RP30 (relative inhibitory potency compared with SNDX-275)” value in assay [1] came out at 1.70. Besides, the GI50 stood at 760 nM in assay [2] (Homo sapiens, SMMC-7721, 72 h) and 310 nM in assay [3] (Homo sapiens, SGC-7901, 72 h). In addition, the IC90 in assay [2] (Homo sapiens, SMMC-7721, 72 h) was found to be 2010 nM; in assay [3] (Homo sapiens, SGC-7901, 72 h), 1730 nM.
